The source made the active and inactive calls. Cut-off read from the data, not from the text of the source, for most assays here: actives have a measured EC50 and inactives only a lower limit.
Tests used:
Saccharomyces cerevisiae = experiment: NALP1 inhibitor project selectivity study, Caspase-1/ASC signal blockade IC50 in S. cerevisiae (AID 488863); assay type: functional, organism-based
[1] = target: T1, Serine/threonine-protein phosphatase (Candida dubliniensis (strain CD36 / CBS 7987 / NCPF 3949 / NRRLY-17841) (Yeast), UniProt B9W6M3); experiment: calcineurin pathway inhibitors in yeast reporter, dose response, S. cerevisiae, CDRE-lacZ, luminescence, secondary (AID 2388); assay type: functional, cell-based;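 note: yeast reporter cells carrying a calcineurin-responsive lacZ construct stimulated with calcium chloride; luminescent beta-galactosidase reporter signal in whole cells rather than isolated phosphatase activity; potency for inhibition where a drop in reporter signal means calcineurin blockade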
T1 sequence (B9W6M3 whole entry): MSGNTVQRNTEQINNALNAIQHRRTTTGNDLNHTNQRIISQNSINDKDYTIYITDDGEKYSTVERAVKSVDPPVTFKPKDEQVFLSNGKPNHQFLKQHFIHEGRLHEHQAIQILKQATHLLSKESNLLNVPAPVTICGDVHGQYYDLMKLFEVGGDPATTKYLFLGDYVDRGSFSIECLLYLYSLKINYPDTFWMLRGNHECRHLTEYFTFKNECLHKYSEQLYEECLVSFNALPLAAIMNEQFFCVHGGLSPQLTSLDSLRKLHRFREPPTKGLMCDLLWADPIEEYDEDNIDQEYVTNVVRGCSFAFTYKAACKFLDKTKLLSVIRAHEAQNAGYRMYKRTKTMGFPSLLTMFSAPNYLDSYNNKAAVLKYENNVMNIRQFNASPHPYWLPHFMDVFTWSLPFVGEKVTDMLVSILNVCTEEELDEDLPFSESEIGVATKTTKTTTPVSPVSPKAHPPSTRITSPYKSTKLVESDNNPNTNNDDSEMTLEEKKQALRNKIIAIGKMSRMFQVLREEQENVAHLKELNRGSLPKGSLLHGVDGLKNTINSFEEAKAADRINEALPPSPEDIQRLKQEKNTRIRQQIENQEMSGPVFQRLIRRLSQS

[2] = C. albicans growth with fluconazole, confirmation, fluorescence, retest (AID 2467); assay type: functional, cell-based
[3] = NIH-3T3 fibroblast cytotoxicity, dose response, cytotoxicity control, cell-based, fluorescence, Alamar Blue, secondary assay (AID 2327); assay type: functional;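 note: NIH-3T3 mouse fibroblasts cultured with fluconazole at 8 µg/mL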
[4] = target: NACHT, LRR and PYD domains-containing protein 1 (Homo sapiens, UniProt Q9C000); experiment: NALP1 inhibitors in yeast, dose response, luminescent (AID 488860); assay type: functional
[5] = target: ATP-dependent molecular chaperone HSP82 (Candida albicans (strain WO-1) (Yeast), UniProt C4YTQ8); experiment: loss of DOC-induced GRE-beta-galactosidase reporter signal, dose response, Hsp90 inhibitor project, S. cerevisiae, luminescence (AID 2400); assay type: functional, cell-based;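 note: beta-galactosidase luminescence from glucocorticoid response element reporter as proxy for Hsp90 function; inhibitor potency where signal loss means Hsp90 inhibition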
[6] = target: Intestinal-type alkaline phosphatase (Mus musculus, UniProt P24822); experiment: PubChem AID 488875; assay type: functional
[7] = target: NACHT, LRR and PYD domains-containing protein 3 (Homo sapiens, UniProt Q96P20); experiment: NALP3 inhibitors in yeast, dose response, luminescent (AID 488799); assay type: functional
[8] = target: T2, Intestinal-type alkaline phosphatase (Homo sapiens, UniProt P09923); experiment: human IAP activators, dose response, biochemical, luminescent, uHTS hits, set 2 (AID 488817); assay type: functional;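 note: potency of activators that raise enzyme activity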
[9] = target: T2, Intestinal-type alkaline phosphatase; experiment: human intestinal alkaline phosphatase activators, dose response, biochemical, luminescence, uHTS hits (AID 463120); assay type: functional
Nonstructural protein 1 = Nonstructural protein 1 (Influenza A virus, UniProt Q194T2); assay type: functional, Influenza A virus (A/California/07/2009(H1N1))
[10] = target: T3, Alkaline phosphatase, tissue-nonspecific isozyme (Homo sapiens, UniProt P05186); experiment: TNAP enzyme activators, dose response, selectivity assay for human IAP activator project, biochemical, TNAP isozyme, human IAP uHTS hits (AID 488886); assay type: functional;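 note: potency of compounds raising TNAP activity as a selectivity check on IAP activators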
T3 sequence (P05186 whole entry): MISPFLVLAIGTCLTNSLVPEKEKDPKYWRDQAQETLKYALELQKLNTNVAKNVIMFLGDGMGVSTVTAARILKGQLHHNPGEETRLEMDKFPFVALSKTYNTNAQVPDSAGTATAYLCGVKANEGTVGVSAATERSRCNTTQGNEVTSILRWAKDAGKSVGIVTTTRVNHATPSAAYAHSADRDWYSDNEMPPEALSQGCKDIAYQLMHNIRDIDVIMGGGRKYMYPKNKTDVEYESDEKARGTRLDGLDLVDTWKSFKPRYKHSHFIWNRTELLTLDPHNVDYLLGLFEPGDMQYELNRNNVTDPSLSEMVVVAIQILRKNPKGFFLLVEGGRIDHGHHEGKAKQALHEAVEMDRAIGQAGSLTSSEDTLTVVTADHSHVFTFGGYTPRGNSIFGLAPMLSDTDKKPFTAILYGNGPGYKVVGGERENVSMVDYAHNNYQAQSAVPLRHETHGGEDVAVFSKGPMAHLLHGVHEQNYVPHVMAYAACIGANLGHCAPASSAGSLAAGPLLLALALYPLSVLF

Streptococcus = experiment: Group A Streptococcus viability loss, dose response, counter-screen for streptokinase expression inhibitor project, luminescence, BacTiterGlo (AID 1915); assay type: functional, organism-based;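 note: potency for reduction of bacterial viability or growth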
[11] = test system: Streptococcus sp. 'group A'; experiment: growth inhibition of control SK(-) GAS strain, dose response, counter-screen for streptokinase expression inhibitor project, luminescence, kanamycin, BacTiterGlo, confirmation (AID 1900); assay type: functional, organism-based
Caspase-3 = target: T4, Caspase-3 (Homo sapiens, UniProt P42574); experiment: procaspase-3 activation potency of dual hits, dose response, counter-screen for dual procaspase-3/7 activator project, biochemical, absorbance, PC-3 D3A mutant (AID 504328)
T4 sequence (P42574 whole entry): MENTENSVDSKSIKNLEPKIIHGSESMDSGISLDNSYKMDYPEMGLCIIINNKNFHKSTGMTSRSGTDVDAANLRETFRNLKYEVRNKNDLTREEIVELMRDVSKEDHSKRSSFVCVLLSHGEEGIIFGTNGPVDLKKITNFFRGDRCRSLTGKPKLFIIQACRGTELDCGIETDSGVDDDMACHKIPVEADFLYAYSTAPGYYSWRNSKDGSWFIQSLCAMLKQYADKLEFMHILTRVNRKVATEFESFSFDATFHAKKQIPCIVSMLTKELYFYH

Caspase-7 = Caspase-7 (Homo sapiens, UniProt P55210); experiment: procaspase-7 activators, dose response, dual procaspase-3/-7 activator project, biochemical, absorbance, human (AID 504330)

T2 sequence (P09923 whole entry): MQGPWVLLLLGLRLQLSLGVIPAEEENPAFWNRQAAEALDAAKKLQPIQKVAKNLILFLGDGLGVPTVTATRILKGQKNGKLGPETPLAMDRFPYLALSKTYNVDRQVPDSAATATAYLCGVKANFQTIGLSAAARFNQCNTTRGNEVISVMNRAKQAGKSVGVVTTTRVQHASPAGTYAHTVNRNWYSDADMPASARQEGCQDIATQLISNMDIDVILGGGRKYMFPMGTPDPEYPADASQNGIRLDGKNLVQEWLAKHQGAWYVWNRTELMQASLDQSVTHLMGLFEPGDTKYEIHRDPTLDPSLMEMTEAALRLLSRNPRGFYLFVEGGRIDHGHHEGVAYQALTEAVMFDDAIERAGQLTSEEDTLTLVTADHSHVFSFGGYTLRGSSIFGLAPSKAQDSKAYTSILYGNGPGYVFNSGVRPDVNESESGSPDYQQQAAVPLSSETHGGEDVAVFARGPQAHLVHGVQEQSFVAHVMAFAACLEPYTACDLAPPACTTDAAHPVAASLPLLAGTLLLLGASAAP
Sequence of Intestinal-type alkaline phosphatase (Mus musculus, UniProt P24822) (P24822 whole entry, the tested form may be a part): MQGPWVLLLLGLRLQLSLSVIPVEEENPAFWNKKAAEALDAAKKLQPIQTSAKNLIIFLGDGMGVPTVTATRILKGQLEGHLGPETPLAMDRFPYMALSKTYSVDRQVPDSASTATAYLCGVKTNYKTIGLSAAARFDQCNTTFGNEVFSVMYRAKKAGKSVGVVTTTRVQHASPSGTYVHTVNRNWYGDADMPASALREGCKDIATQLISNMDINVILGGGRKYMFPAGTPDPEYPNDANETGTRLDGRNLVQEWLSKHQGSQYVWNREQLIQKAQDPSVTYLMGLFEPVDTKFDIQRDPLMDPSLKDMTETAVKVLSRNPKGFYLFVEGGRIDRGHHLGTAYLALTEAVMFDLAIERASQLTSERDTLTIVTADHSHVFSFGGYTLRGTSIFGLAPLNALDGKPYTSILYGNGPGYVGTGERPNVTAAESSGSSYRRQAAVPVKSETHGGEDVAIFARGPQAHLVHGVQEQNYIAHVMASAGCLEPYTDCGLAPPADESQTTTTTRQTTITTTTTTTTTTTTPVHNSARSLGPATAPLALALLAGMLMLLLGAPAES
Sequence of NACHT, LRR and PYD domains-containing protein 1 (Q9C000 1-1212 limits assumed): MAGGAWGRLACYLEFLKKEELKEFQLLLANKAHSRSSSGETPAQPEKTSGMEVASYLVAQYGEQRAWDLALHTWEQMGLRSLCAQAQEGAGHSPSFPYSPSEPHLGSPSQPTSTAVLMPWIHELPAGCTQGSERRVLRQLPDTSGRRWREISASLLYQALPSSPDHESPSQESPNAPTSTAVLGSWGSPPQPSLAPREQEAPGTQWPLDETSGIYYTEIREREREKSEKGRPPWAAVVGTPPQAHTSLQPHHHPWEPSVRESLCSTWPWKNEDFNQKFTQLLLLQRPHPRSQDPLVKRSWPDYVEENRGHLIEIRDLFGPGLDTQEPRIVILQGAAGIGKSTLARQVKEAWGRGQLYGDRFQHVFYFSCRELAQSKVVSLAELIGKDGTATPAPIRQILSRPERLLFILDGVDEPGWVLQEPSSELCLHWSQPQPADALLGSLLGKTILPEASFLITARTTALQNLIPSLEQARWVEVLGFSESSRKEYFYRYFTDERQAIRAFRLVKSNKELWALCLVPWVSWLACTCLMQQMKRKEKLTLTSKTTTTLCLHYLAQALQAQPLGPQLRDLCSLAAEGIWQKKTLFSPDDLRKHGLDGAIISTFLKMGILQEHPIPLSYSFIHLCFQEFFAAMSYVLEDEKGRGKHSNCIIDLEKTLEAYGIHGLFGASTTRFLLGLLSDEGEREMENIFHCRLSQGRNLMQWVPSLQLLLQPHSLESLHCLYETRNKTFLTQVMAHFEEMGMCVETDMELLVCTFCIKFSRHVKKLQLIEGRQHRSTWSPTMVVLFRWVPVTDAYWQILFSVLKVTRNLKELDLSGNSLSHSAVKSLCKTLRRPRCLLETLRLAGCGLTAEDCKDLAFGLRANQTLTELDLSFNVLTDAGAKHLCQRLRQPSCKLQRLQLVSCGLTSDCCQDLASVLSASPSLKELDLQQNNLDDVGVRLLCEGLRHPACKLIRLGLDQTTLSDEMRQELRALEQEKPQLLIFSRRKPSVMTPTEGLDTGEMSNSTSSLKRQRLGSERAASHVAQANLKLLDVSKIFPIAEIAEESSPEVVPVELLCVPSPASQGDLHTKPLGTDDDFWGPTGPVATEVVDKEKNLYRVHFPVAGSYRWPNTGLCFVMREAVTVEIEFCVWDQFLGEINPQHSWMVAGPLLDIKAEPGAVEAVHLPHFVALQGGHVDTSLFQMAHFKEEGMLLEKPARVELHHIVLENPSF
Sequence of NACHT, LRR and PYD domains-containing protein 1 (Q9C000 1213-1473 limits assumed): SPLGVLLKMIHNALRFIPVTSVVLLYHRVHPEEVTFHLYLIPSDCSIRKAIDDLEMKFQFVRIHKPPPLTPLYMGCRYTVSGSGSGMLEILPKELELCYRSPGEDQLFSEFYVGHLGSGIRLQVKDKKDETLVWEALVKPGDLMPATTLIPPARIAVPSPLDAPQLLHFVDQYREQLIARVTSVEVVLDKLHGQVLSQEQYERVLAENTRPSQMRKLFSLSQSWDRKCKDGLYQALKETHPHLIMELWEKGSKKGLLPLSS
Sequence of Nonstructural protein 1 (Q194T2 whole entry): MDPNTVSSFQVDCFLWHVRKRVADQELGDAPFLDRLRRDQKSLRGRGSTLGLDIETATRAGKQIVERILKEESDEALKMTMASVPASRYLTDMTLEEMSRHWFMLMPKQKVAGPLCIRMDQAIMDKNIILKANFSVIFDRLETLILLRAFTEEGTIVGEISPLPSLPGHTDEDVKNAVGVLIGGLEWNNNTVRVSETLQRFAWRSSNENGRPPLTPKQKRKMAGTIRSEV
Sequence of NACHT, LRR and PYD domains-containing protein 3 (Q96P20 whole entry, the tested form may be a part): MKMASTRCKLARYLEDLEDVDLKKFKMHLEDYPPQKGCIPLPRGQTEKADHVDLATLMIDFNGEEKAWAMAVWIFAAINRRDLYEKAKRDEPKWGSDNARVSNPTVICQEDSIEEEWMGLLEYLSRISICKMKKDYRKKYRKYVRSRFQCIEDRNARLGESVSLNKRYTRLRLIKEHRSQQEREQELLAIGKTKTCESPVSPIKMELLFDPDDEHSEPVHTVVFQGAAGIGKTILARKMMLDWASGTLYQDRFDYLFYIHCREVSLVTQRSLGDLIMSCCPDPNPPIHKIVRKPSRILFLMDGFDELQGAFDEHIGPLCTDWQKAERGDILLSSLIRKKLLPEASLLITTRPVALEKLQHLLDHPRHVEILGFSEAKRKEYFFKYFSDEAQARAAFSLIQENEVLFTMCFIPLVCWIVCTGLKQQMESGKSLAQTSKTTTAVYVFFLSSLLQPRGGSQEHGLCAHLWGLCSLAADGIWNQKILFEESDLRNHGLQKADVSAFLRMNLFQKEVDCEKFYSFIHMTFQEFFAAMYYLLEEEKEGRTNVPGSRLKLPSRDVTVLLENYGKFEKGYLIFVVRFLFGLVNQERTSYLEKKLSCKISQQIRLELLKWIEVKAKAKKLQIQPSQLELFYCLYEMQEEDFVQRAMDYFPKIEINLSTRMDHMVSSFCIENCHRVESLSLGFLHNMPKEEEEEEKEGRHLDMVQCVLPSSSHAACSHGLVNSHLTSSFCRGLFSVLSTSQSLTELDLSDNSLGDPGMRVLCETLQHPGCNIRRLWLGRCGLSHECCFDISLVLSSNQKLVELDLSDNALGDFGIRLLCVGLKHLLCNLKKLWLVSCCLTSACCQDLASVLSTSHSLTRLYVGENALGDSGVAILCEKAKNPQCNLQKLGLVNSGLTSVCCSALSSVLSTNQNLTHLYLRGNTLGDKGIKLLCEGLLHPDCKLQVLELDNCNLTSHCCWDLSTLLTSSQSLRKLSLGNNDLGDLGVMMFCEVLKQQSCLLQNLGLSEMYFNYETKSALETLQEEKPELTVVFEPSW
Sequence of ATP-dependent molecular chaperone HSP82 (C4YTQ8 whole entry): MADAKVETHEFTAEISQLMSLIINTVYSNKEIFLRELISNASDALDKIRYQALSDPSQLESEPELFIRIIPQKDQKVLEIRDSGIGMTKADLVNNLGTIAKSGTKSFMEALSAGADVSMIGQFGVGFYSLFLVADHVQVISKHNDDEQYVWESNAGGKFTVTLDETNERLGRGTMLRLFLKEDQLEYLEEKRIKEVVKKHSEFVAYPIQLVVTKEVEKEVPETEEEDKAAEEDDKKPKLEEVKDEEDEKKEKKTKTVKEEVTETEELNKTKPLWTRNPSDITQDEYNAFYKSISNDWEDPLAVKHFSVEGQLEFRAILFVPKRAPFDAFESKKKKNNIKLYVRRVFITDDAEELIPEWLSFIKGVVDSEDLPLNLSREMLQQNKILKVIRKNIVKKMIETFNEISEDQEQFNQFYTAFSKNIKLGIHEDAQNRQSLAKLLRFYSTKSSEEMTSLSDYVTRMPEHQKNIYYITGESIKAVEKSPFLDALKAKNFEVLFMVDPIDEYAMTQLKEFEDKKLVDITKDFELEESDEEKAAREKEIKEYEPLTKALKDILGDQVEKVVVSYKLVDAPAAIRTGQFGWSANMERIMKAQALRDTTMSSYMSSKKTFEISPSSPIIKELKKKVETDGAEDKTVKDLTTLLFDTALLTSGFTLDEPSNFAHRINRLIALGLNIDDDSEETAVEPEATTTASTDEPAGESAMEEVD

With `Cc1cc2ccccn2c1C(C[N+](=O)[O-])c1c(F)cccc1Cl` (stereo unspecified) the IC50 (Saccharomyces cerevisiae) was 6.44 µM (active), the EC50 [1] was 45.4 µM (active) and the EC50 [2] was 0.421 µM (active). The EC50 [3] was > 160 µM (inactive), the IC50 [4] was 7.92 µM (active) and the EC50 [5] was 4.47 µM (active).
In the case of `O=C(NC(=S)NNC(=O)c1ccccc1O)c1ccc(F)cc1`, the EC50 [6] is reported as > 100 µM (inactive), the IC50 [7] is reported as 7.94 µM (active) and the EC50 [8] is reported as 12.2 µM (active). For the same compound, the EC50 [9] was 8.25 µM (active), the IC50 (Nonstructural protein 1) was 12.2 µM (active) and the EC50 [10] was 12.4 µM (active). The EC50 (Streptococcus) was 7.74 µM (active) and the EC50 [11] was 3.21 µM (active).
In the case of `COc1ccc2c(c1OC)C(=O)OC2CC(=O)c1ccc(N(C)C)cc1` (stereo unspecified), the EC50 (Caspase-3) is reported as > 85.3 µM (inactive) and the EC50 (Caspase-7) is reported as > 85.3 µM (inactive).

From ChEMBL document CHEMBL1201862, “PubChem BioAssay data set” (2004)
